Assay results from US20220111081A1, “COMPOSITION FOR TARGETING MEDULLARY THYROID CANCER” (University-Industry Foundation, Yonsei University, priority 2019, published 2022).

What was measured:
MZ-CRC-1 cell line [1] = assay: serum calcitonin in nude mice with MZ-CRC-1 tumor after ^11C-acetate; format: in vivo, mouse; conditions: nude mice (BALB/c) with tumor from MZ-CRC-1 cell line (FIG. 11B)
Experimental: (§1) Nude mice (BALB/c) were administered with the MZ-CRC-1 cell line (4×10^6 cells/mouse) to induce tumorigenesis, and administered with ^11C-acetate, followed by performing positron emission tomography (PET).

OR51E2 [2] = assay: CPM after ^11C-acetate treatment of OR51E2 knockout mice; format: in vivo, mouse; conditions: OR51E2 knockout mice compared with wild-type mice (FIG. 8D)
OR51E2 [3] = target: T1, OR51E2 (Homo sapiens, UniProt Q9H255); assay: ^11C-acetate positron emission and CPM in thyroid cancer cell lines; format: cell-based; design: OR51E1 (olfactory receptor 51E1) and OR51E2 were highly expressed in MZ-CRC1 and TT cell lines as medullary thyroid cancer cell lines; endogenous in cells; host or cells: MZ-CRC-1 and TT medullary thyroid cancer cell lines
T1 sequence (Q9H255 1-320): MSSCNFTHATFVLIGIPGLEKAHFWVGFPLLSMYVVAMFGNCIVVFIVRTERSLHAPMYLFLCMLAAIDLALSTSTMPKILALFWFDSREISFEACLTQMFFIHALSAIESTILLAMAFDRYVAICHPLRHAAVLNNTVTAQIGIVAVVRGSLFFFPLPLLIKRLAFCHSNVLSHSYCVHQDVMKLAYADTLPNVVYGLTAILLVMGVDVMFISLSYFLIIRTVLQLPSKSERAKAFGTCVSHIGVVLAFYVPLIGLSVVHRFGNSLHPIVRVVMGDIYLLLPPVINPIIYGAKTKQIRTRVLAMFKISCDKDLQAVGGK
Experimental: Thyroid cancer cell lines having different origins were treated with ^11C-acetate labeled with a radioactive isotope (20 μCi), and the degree of positron emission was identified. A control group was treated with F-18-fluorodeoxyglucose as the most commonly used radiopharmaceutical.

OR51E2 [4] = target: T1, OR51E2; assay: acetate binding competition experiment (CPM); design: OR51E1 (olfactory receptor 51E1) and OR51E2 were highly expressed in MZ-CRC1 and TT cell lines as medullary thyroid cancer cell lines; endogenous in cells; host or cells: MZ-CRC-1 and TT medullary thyroid cancer cell lines; conditions: MZ-CRC-1 and TT cell lines
Experimental: MZ-CRC-1 and TT cell lines as medullary thyroid cancer cell lines were treated with 100 μM cold acetate (acetate labeled with no radioactive isotope), and then treated with ^11C-acetate at concentrations of 2, 5, 10, 20, 40 and 60 μCi to measure CPM. In addition, MZ-CRC-1 and TT cell lines were treated with ^11C-acetate (20 μCi), and then treated with cold acetate at concentrations of 0, 20, 40, 80, 150 and 300 μM to measure CPM.

MZ-CRC-1 cell line [5] = assay: positron emission tomography (PET) of nude mice with MZ-CRC-1 tumor; format: in vivo, mouse; conditions: nude mice (BALB/c) with tumor from MZ-CRC-1 cell line (FIG. 11A)
Experimental: as §1

[6] = test system: CREB (cAMP response element-binding protein); conditions: parafollicular C-cell line, acetate concentration series (FIG. 4B)
Experimental: (§2) Since OR51E1 and OR51E2 were highly expressed in the medullary thyroid cancer cell lines, MZ-CRC1 and TT cell lines as parafollicular C-cell lines were treated with acetate, nonanoic acid, propionate and azelaic acid as olfactory receptor ligands by 100 μM each to identify their influences.

p42/44 MAPK = test system: p42/44 MAPK
Experimental: as §2

intracellular cAMP = conditions: parafollicular C-cell line, acetate treatment (FIG. 4C)
Experimental: as §2

OR51E2 [7] = target: T1, OR51E2; conditions: MZ-CRC-1 cell line, 100 μM acetate, stained after 1, 5 and 30 minutes (FIG. 10)
Experimental: To identify whether the binding of acetate and OR51E2 can be utilized in the diagnosis of thyroid cancer, the MZ-CRC-1 cell line (parafollicular C-cells) was treated with 100 μM of acetate, and the cells were stained after 1, 5 and 30 minutes to identify OR51E2.

OR51E2 [8] = target: T1, OR51E2
Experimental: (§3) Thereafter, the parafollicular C-cells were treated with acetate at each concentration and cultured, and then using a bromodeoxyuridine (BrdU) cell proliferation assay kit (Millipore, Mass.), the degree of BrdU binding was analyzed according to the manufacturer's protocol.

parafollicular C-cells = parafollicular C-cells treated with acetate at each concentration (FIG. 5A)
Experimental: as §3

OR51E2 [9] = target: OR51E2 (Mus musculus, UniProt Q8VBV9); conditions: wild-type mice, 30 minutes after injecting 100 μl of 99% acetate (FIG. 7B)
Experimental: (§4) C57/BL6 mice in which a green fluorescent protein (GFP) was inserted into the OR51E2 gene loci were purchased (Jackson Laboratory, USA) and reared under sterile conditions. Through a week of acclimatization, the mice were each sacrificed 30 minutes after injecting 100 μl of 99% acetate thereto to separate the thyroid gland and serum. The thyroid gland was stained with calcitonin and a GFP antibody, respectively, and the calcitonin concentration was measured in the separated serum.

OR51E2 [10] = conditions: OR51E2 knockout mice, 30 minutes after injecting 100 μl of 99% acetate (FIG. 7B)
Experimental: as §4

Chain of OR51E2 (Mus musculus, UniProt Q8VBV9) (Q8VBV9 whole entry): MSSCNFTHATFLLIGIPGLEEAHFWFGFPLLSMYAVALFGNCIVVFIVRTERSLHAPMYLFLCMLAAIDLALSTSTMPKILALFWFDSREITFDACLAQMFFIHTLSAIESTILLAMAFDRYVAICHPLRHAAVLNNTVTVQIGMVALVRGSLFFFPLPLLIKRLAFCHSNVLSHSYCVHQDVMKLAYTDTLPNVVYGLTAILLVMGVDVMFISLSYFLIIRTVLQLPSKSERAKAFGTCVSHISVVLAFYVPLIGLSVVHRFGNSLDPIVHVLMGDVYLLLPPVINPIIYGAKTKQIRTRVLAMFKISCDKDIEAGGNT

level of positron emission (OR51E2 [3]; medullary thyroid cancer cell line versus other thyroid cancer cell lines, 20 μCi (FIG. 8A))	CPM (counter per minute) (OR51E2 [3]; medullary thyroid cancer cell line versus other thyroid cancer cell lines, 20 μCi (FIG. 8B))	CPM (OR51E2 [3]; medullary thyroid cancer cell line with OR51E2 expression suppressed by siOR51E2 (FIG. 8C))	location of OR51E2 (staining) (OR51E2 [7])	release of calcitonin (OR51E2 [8]; expression of OR51E2 suppressed with siRNA, then acetate treatment (FIG. 5C))	intracellular expression level of calcitonin (OR51E2 [8]; parafollicular C-cell line, acetate treatment (FIG. 5B))	level of calcitonin in the serum (OR51E2 [9])	SMILES	calcitonin concentration in the serum (MZ-CRC-1 cell line [1])	CPM (OR51E2 [2])	CPM (OR51E2 [4]; first 100 μM cold acetate, then ^11C-acetate 2, 5, 10, 20, 40 and 60 μCi (FIG. 9A, 9B))	PET tracer accumulation (MZ-CRC-1 cell line [5])	phosphorylation level of CREB versus concentration [6]	level of phosphorylation of p42/44 MAPK (p42/44 MAPK; MZ-CRC1 and TT cell lines, ligands 100 μM each (FIG. 4A))	phosphorylation level of p42/44 MAPK versus concentration (p42/44 MAPK; parafollicular C-cell line, acetate concentration series (FIG. 4B))	level of intracellular cAMP (intracellular cAMP)	cell proliferation (BrdU binding level) (parafollicular C-cells)	level of calcitonin in the serum (OR51E2 [10])	CPM (OR51E2 [4]; first ^11C-acetate 20 μCi, then cold acetate 0, 20, 40, 80, 150 and 300 μM (FIG. 9C, 9D))
high	highest	did not increase	–	–	–	–	C[11C](=O)O [^11C-acetate]	increased	did not increase	increased as the treatment concentration increased	accumulated in the tumor-producing sites	–	–	–	–	–	–	–
–	–	–	migrated into the cells	not increased	increased	increased	CC(=O)O [acetate]	–	–	–	–	increased in proportion to the acetate treatment concentration	increased	increased in proportion to the acetate treatment concentration	increased	increased	maintained almost constant	decreased as the treatment concentration increased
